For 16 compounds, EC50 and IC50 results are on record in patent US9072734B2, “Quaternary ammonium salt compounds” (Teijin Pharma Limited, priority 2009, dated 2015).

Where a name gives a salt, the structure may show the parent alone.

The target in assay [1] is T1, human β2 adrenergic receptor (Homo sapiens, UniProt P07550).
T1 construct: expressed in transfected cells; host or cells: CHO-K1
Briefly: Whole-cell cAMP Flashplate assay using CHO-K1 cells stably expressing human β2 adrenergic receptor. It counts as cell-based. The note with it: cAMP production. For orientation: Changes in cAMP serve as a functional read-out for many G protein-coupled receptors.

Assay [2] addresses T2, human M3 muscarinic receptor (Homo sapiens, UniProt P20309).
T2 construct: expressed in transfected cells; host or cells: CHO-K1
Kind of assay: Inhibitory effect on methacholine-induced calcium influx, FLIPR assay, CHO-K1 cells stably expressing the human M3 muscarinic receptor. Format: cell-based. Conditions: inhibition of calcium influx induced by methacholine. A digest of the protocol: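 Dye-loaded hM3 CHO-K1 cells were preincubated 180 s with compound solutions prepared at 10 two-fold concentrations (0.01–1000 nM). A 30 nM methacholine solution was then added. Fluorescence was traced for 170 s; max−min signal gave % inhibition against agonist and no-agonist controls, and IC50 came from a four-parameter logistic fit.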

T2 sequence (P20309 whole entry): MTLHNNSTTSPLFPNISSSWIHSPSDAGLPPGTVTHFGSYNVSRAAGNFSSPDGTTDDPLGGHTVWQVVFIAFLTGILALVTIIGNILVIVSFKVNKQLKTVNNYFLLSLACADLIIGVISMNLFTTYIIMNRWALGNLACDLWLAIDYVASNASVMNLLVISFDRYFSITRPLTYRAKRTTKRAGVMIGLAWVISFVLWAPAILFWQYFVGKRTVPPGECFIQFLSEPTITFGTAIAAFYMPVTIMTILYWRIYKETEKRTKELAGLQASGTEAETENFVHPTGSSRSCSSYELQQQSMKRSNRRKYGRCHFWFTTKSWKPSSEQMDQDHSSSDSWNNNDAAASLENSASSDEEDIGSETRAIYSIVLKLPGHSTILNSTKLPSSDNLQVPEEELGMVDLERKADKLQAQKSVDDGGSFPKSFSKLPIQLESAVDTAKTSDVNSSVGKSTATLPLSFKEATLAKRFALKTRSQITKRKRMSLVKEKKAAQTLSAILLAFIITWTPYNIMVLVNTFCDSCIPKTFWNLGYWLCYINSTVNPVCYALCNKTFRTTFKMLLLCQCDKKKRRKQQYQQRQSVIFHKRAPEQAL
T1 sequence (P07550 whole entry): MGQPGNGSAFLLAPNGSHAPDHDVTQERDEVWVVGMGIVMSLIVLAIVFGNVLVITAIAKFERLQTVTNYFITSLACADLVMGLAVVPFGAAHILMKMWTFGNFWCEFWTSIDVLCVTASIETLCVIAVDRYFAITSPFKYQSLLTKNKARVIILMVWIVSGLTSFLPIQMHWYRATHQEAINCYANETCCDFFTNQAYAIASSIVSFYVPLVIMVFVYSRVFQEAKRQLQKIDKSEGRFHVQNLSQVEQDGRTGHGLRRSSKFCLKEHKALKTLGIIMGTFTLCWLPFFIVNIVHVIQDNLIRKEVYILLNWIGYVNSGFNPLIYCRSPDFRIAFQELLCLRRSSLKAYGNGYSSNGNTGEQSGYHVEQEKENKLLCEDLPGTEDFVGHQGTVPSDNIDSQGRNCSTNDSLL

The term EC50 denotes the concentration at which the effect is half-maximal. Higher therefore signals lower potency in that assay. A word on the IC50: it is the concentration that inhibits the measured activity by half. Regarding `CCOc1cc(NC(=O)CCc2ccc(-c3ccccc3)c(NC(=O)OC3C[C@@H]4[C@H]5O[C@H]5[C@H](C3)[N+]4(C)C)c2)ccc1CNC[C@H](O)c1ccc(O)c2[nH]c(=O)ccc12` (stereo partly drawn) [Example 47, (1R,2R,4S,5S,7S)-7-({[5-(2-{[4-({[(2R)-2-hydroxy-2-(8-hydroxy-2-oxo-1,2-dihydroquinolin-5-yl)ethyl]amino}methyl)-3-ethoxyphenyl]carbamoyl}ethyl)-2-phenylphenyl]carbamoyl}oxy)-9,9-dimethyl-3-oxa-9-azatricyclo[3.3.1.0^2,4]nonan-9-ium trifluoroacetate], the 50% effective concentration (EC50) in assay [1] is 1.9 nM. In addition, in assay [2], the IC50 worked out at 16.5 nM.
In the same order, the values of `COc1cc(NC(=O)CCCc2ccc(-c3ccccc3)c(NC(=O)OC3C[C@H]4CC[C@H](C3)[N+]4(C)C)c2)c(Cl)cc1CNC[C@H](O)c1ccc(O)c2[nH]c(=O)ccc12` (stereo partly drawn) [Example 48, (1R,3R)-3-{[5-(3-{[2-chloro-4-({[(2R)-2-hydroxy-2-(8-hydroxy-2-oxo-1,2-dihydroquinolin-5-yl)ethyl]amino}methyl)-5-methoxyphenyl]carbamoyl}propyl)-2-phenylphenyl]carbamoyl}oxy)-8,8-dimethyl-8-azabicyclo[3.2.1]nonan-8-ium trifluoroacetate] are 0.4 nM and 21.7 nM.
In the same order, the values of `C[N+]1(C)CCC(OC(=O)Nc2cc(CCCCC(=O)Nc3ccc(CNC[C@H](O)c4ccc(O)c5[nH]c(=O)ccc45)cc3)ccc2-c2ccccc2)CC1` [Example 49, 4-({[5-(4-{[4-({[(2R)-2-hydroxy-2-(8-hydroxy-2-oxo-1,2-dihydroquinolin-5-yl)ethyl]amino}methyl)phenyl]carbamoyl}butyl)-2-phenylphenyl]carbamoyl}oxy)-1,1-dimethylpiperidin-1-ium trifluoroacetate] are 2.3 nM and 13.9 nM.
`C[N+]1(C)[C@@H]2CC(OC(=O)Nc3cc(CCCCC(=O)Nc4ccc(CNC[C@H](O)c5ccc(O)c6[nH]c(=O)ccc56)cc4)ccc3-c3ccccc3)C[C@H]1[C@@H]1O[C@@H]12` (stereo partly drawn) [Example 50, (1R,2R,4S,5S,7S)-7-({[5-(4-{[4-({[(2R)-2-hydroxy-2-(8-hydroxy-2-oxo-1,2-dihydroquinolin-5-yl)ethyl]amino}methyl)phenyl]carbamoyl}butyl)-2-phenylphenyl]carbamoyl}oxy)-9,9-dimethyl-3-oxa-9-azatricyclo[3.3.1.0^2,4]nonan-9-ium trifluoroacetate]: in assay [1], the EC50 was found to be 1.7 nM. For the same compound, the IC50 in assay [2] stood at 27.6 nM.
In the same order, the values of `COc1cc(NC(=O)CCCCc2ccc(-c3ccccc3)c(NC(=O)OC3C[C@@H]4[C@H]5O[C@H]5[C@H](C3)[N+]4(C)C)c2)c(Cl)cc1CNC[C@H](O)c1ccc(O)c2[nH]c(=O)ccc12` (stereo partly drawn) [Example 52, (1R,2R,4S,5S,7S)-7-({[5-(4-{[2-chloro-4-({[(2R)-2-hydroxy-2-(8-hydroxy-2-oxo-1,2-dihydroquinolin-5-yl)ethyl]amino}methyl)-5-methoxyphenyl]carbamoyl}butyl)-2-phenylphenyl]carbamoyl}oxy)-9,9-dimethyl-3-oxa-9-azatricyclo[3.3.1.0^2,4]nonan-9-ium trifluoro acetate] are 0.4 nM and 32.8 nM.
Compound `C[N+]1(C)[C@@H]2CC(OC(=O)Nc3ccc(CCCC(=O)Nc4ccc(CNC[C@H](O)c5ccc(O)c6[nH]c(=O)ccc56)cc4)cc3-c3ccccc3)C[C@H]1[C@@H]1O[C@@H]12` (stereo partly drawn) [Example 53, (1R,2R,4S,5S,7S)-7-({[4-(3-{[4-({[(2R)-2-hydroxy-2-(8-hydroxy-2-oxo-1,2-dihydroquinolin-5-yl)ethyl]amino}methyl)phenyl]carbamoyl}propyl)-2-phenylphenyl]carbamoyl}oxy)-9,9-dimethyl-3-oxa-9-azatricyclo[3.3.1.0^2,4]nonan-9-ium trifluoroacetate] gave an EC50 in assay [1] of 0.6 nM. Also, the IC50 in assay [2] was 53.7 nM.
In the case of `C[N+]1(C)CCC(OC(=O)Nc2ccc(CCCC(=O)Nc3ccc(CNC[C@H](O)c4ccc(O)c5[nH]c(=O)ccc45)cc3)cc2-c2ccccc2)CC1` [Example 54, 4-({[4-(3-{[4-({[(2R)-2-hydroxy-2-(8-hydroxy-2-oxo-1,2-dihydroquinolin-5-yl)ethyl]amino}methyl)phenyl]carbamoyl}propyl)-2-phenylphenyl]carbamoyl}oxy)-1,1-dimethylpiperidin-1-ium trifluoroacetate], a half-maximal effect in assay [1] (EC50) was put at 0.9 nM. Further, in assay [2], the IC50 was 20.9 nM.
The like results for `COc1cc(NC(=O)CCCc2ccc(NC(=O)O[C@@H]3C[C@@H]4[C@H]5O[C@H]5[C@H](C3)[N+]4(C)C)c(-c3ccccc3)c2)c(Cl)cc1CNC[C@H](O)c1ccc(O)c2[nH]c(=O)ccc12` [Example 55, (1R,2R,4S,5S,7S)-7-({[4-(3-{[2-chloro-4-({[(2R)-2-hydroxy-2-(8-hydroxy-2-oxo-1,2-dihydroquinolin-5-yl)ethyl]amino}methyl)-5-methoxyphenyl]carbamoyl}propyl)-2-phenylphenyl]carbamoyl}oxy)-9,9-dimethyl-3-oxa-9-azatricyclo[3.3.1.0^2,4]nonan-9-ium trifluoroacetate] were, in that order, 0.2 nM and 51.8 nM.
For the compound `C[N+]1(C)[C@@H]2C[C@@H](OC(=O)Nc3ccc(CCCC(=O)Nc4ccc5cc(CNC[C@H](O)c6ccc(O)c7[nH]c(=O)ccc67)ccc5c4)cc3-c3ccccc3)C[C@H]1[C@@H]1O[C@@H]12` [Example 56, (1R,2R,4S,5S,7S)-7-({[4-(3-{[6-({[(2R)-2-hydroxy-2-(8-hydroxy-2-oxo-1,2-dihydroquinolin-5-yl)ethyl]amino}methyl)naphthalen-2-yl]carbamoyl}propyl)-2-phenylphenyl]carbamoyl}oxy)-9,9-dimethyl-3-oxa-9-azatricyclo[3.3.1.0^2,4]nonan-9-ium trifluoroacetate], it took 0.9 nM to reach a half-maximal effect in assay [1] (EC50). Besides, in assay [2], the concentration for half-maximal inhibition (IC50) is 64.1 nM.
The like results for `C[N+]1(C)CCC(OC(=O)Nc2cc(OCCCCCCCCNC[C@H](O)c3ccc(O)c4[nH]c(=O)ccc34)ccc2-c2ccccc2)CC1` [Example 58, 4-[({5-[(8-{[(2R)-2-hydroxy-2-(8-hydroxy-2-oxo-1,2-dihydroquinolin-5-yl)ethyl]amino}octyl)oxy]-2-phenylphenyl}carbamoyl)oxy]-1,1-dimethylpiperidin-1-ium trifluoroacetate] were, in that order, 0.6 nM and 46.4 nM.
For `C[N+]1(C)CCC(OC(=O)Nc2cc(CCCCOc3ccc(CNC[C@H](O)c4ccc(O)c5[nH]c(=O)ccc45)cc3)ccc2-c2ccccc2)CC1` [Example 61, 4-{[(5-{4-[4-({[(2R)-2-hydroxy-2-(8-hydroxy-2-oxo-1,2-dihydroquinolin-5-yl)ethyl]amino}methyl)phenoxy]butyl}-2-phenylphenyl)carbamoyl]oxy}-1,1-dimethylpiperidin-1-ium trifluoroacetate], the EC50 in assay [1] amounted to 8.7 nM. In addition, in assay [2], the 50% inhibitory concentration (IC50) is 37.8 nM.
On to `C[N+]1(C)CCC(OC(=O)Nc2cc(CCC(=O)Nc3ccc(CCCNC[C@H](O)c4ccc(O)c5[nH]c(=O)ccc45)cc3)ccc2-c2ccccc2)CC1` [Example 62, 4-({[5-(2-{[4-(3-{[(2R)-2-hydroxy-2-(8-hydroxy-2-oxo-1,2-dihydroquinolin-5-yl)ethyl]amino}propyl)phenyl]carbamoyl}ethyl)-2-phenylphenyl]carbamoyl}oxy)-1,1-dimethylpiperidin-1-ium trifluoroacetate], for which, in assay [1], the EC50 came out at 1.5 nM. Besides, in assay [2], the IC50 was 51.3 nM.
The like results for `C[N+]1(C)CCC(OC(=O)Nc2cc(CCC(=O)Nc3ccc(CCNC[C@H](O)c4ccc(O)c5[nH]c(=O)ccc45)cc3)ccc2-c2ccccc2)CC1` [Example 63, 4-({[5-(2-{[4-(2-{[(2R)-2-hydroxy-2-(8-hydroxy-2-oxo-1,2-dihydroquinolin-5-yl)ethyl]amino}ethyl)phenyl]carbamoyl}ethyl)-2-phenylphenyl]carbamoyl}oxy)-1,1-dimethylpiperidin-1-ium trifluoroacetate] were, in that order, 5.6 nM and 41.7 nM.
`C[N+]1(C)CCC(OC(=O)Nc2ccc(CCC(=O)Nc3ccc(CNC[C@H](O)c4ccc(O)c5[nH]c(=O)ccc45)cc3)cc2-c2ccccc2)CC1` [Example 69, 4-({[4-(2-{[4-({[(2R)-2-hydroxy-2-(8-hydroxy-2-oxo-1,2-dihydroquinolin-5-yl)ethyl]amino}methyl)phenyl]carbamoyl}ethyl)-2-phenylphenyl]carbamoyl}oxy)-1,1-dimethylpiperidin-1-ium trifluoroacetate]: in assay [1], the EC50 worked out at 16 nM. Further, in assay [2], the IC50 came out at 44.7 nM.
`COc1cc(NC(=O)CCCc2ccc(NC(=O)O[C@@H]3C[C@@H]4[C@H]5O[C@H]5[C@H](C3)[N+]4(C)C)c(-c3ccccc3)c2)c(Br)cc1CNC[C@H](O)c1ccc(O)c2[nH]c(=O)ccc12` [Example 70, (1R,2R,4S,5S,7S)-7-({[4-(3-{[2-bromo-4-({[(2R)-2-hydroxy-2-(8-hydroxy-2-oxo-1,2-dihydroquinolin-5-yl)ethyl]amino}methyl)-5-methoxyphenyl]carbamoyl}propyl)-2-phenylphenyl]carbamoyl}oxy)-9,9-dimethyl-3-oxa-9-azatricyclo[3.3.1.0^2,4]nonan-9-ium trifluoroacetate] returned an EC50 in assay [1] of 0.2 nM. Besides, the IC50 in assay [2] came out at 60.3 nM.
In the same order, the values of `C[N+]1(C)[C@@H]2C[C@@H](OC(=O)Nc3ccc(CCCC(=O)Nc4ccc(CNC[C@H](O)c5ccc(O)c6[nH]c(=O)ccc56)cc4Cl)cc3-c3ccccc3)C[C@H]1[C@@H]1O[C@@H]12` [Example 71, (1R,2R,4S,5S,7S)-7-({[4-(3-{[2-chloro-4-({[(2R)-2-hydroxy-2-(8-hydroxy-2-oxo-1,2-dihydroquinolin-5-yl)ethyl]amino}methyl)phenyl]carbamoyl}propyl)-2-phenylphenyl]carbamoyl}oxy)-9,9-dimethyl-3-oxa-9-azatricyclo[3.3.1.0^2,4]nonan-9-ium trifluoroacetate] are 0.2 nM and 38.9 nM.
